pIC50: −log10 of the molar value.
Target: T1, FBXO21 (Homo sapiens, UniProt O94952)
T1 sequence (O94952 1-628): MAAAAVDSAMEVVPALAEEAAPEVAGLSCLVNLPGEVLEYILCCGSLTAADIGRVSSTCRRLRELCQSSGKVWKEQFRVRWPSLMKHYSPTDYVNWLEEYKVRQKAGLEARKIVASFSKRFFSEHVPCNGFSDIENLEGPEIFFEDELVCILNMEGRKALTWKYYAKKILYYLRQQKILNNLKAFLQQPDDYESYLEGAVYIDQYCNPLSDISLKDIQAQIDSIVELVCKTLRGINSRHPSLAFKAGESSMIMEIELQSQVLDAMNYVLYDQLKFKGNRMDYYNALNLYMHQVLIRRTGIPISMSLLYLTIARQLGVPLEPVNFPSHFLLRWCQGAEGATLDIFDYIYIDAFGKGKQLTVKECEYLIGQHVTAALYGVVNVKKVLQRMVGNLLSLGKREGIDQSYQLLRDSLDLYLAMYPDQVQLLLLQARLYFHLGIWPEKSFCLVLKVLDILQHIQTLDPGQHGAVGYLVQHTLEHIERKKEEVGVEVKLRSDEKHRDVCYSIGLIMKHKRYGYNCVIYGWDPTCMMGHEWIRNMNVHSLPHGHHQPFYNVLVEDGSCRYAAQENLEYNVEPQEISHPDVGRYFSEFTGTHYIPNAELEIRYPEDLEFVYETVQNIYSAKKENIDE
Test: in vitro ubiquitination of GFP-p85α, Western blot
Format: biochemical

O=C(O)Cc1cc(-c2ccc(F)cc2)ccc1-c1ccc(F)cc1 [57-057]
pIC50: 8.62

— paper doi:10.1101/2024.12.13.628427v1 (biorxiv, 2024)
